# Laboratory results published in patent US11857604B2, “Nanovectors and uses” (NH THERAGUIX, priority 2017, dated 2024).
# Assay: physisorption of active substance on nanoparticles: tangential filtration (3 kDa Vivaspin), subnatant analysed by UV-visible/fluorescence
# Format: physicochemical
# Settings: for concentration up to which retention of the active substance is observed (minimum) / load content by weight: AGuIX® at 100 mM [Gd3+] = 100 g/l of nanoparticles
# Protocol: During the various examples, the maximum drug load content on polysiloxane nanoparticles was determined, when said particles are present at a concentration corresponding to a concentration used during clinical trials for the nanoparticle in question. Increasing concentrations of active substances were thus brought into contact with the nanoparticles. Solutions are purified by tangential filtration. The molecules which have not be able to adsorb to the surface of the nanoparticles pass through the membrane and are found in the subnatant, where they can be detected by spectroscopic techniques such as UV/Visible absorption or else fluorescence spectroscopy (FIG. 2).
# This solution is placed in a 3 kDa Vivaspin®, and a tangential filtration cycle is carried out in order to obtain a supernatant of 200 μl. The subnatant is analysed by UV-visible analysis. The supernatant is diluted 50-fold and is analysed by UV-visible analysis.
# This solution is placed in a 3 kDa Vivaspin®, and a tangential filtration cycle is carried out so as to obtain a supernatant of 200 μl. The subnatant is analysed by UV-visible analysis and fluorometry after 20-fold dilution.
# This solution is placed in a 3 kDa Vivaspin®, and a tangential filtration cycle is carried out so as to obtain a supernatant of 160 μl. The subnatant is analysed by UV-visible analysis. The cisplatin is detectable by UV/VIS absorption at a wavelength of 706 nm after reaction with ODPA. For the reaction with cisplatin, a solution of ODPA at 1.4 mg/ml and a phosphate buffer (pH 6.8) are prepared. The subnatant is diluted 5-fold. 140 μl of this solution are added to 200 μl of buffer and 100 μl of ODPA. The resulting solution is heated at 100° C. for 15 min. Once the reaction is finished and the temperature has returned to ambient temperature, 560 μl of DMF are added. The final solution is filtered and then analysed by UV-visible analysis.
Molecule,"limiting concentration up to which the peptide adsorbs at the surface of the nanoparticles (AGuIX® 100 mM, absorption at 280 nm of subnatants (FIG. 12))",concentration up to which retention of the active substance is observed (minimum) [µg/mL],load content by weight,"limiting concentration up to which cisplatin adsorbs at the surface of the nanoparticles (AGuIX® 100 mM, absorption at 706 nm of ODPA-treated subnatants (FIG. 16))"
tyr3-octreotate [TATE peptide],approximately 2 g·L^1,≥ 2000,greater than 20 mg/g of nanoparticles,–
N.N.[Cl][Pt][Cl] [cisplatin],–,≥ 240,greater than 2.4 mg/g of nanoparticles,approximately 240 mg·L^−1
COc1cccc2c1C(=O)c1c(O)c3c(c(O)c1C2=O)C[C@@](O)(C(=O)CO)C[C@@H]3O[C@H]1C[C@H](N)[C@H](O)[C@H](C)O1 [doxorubicin],–,≥ 112,greater than 1.12 mg/g of nanoparticles,–
